Earlier results in US20210330725A1, “GARCINIA MANGOSTANA EXTRACT FOR PROMOTING HAIR GROWTH” (PIERRE FABRE DERMO-COSMETIQUE, priority 2018, published 2021).

Test system: hair follicles
Details: mice

For `C[C@@H]1CCN(C(=O)CC#N)C[C@@H]1N(C)c1ncnc2[nH]ccc12` [Tofacitinib, tofacitinib], the “effect on hair cycle of topical treatment in telogen phase” value is given as “rapid re-entry at the beginning of anagen phase”.
